In article PMC3462775 (PLoS ONE, 2012):
Converted amounts (≈) assume the structure as drawn. Bridge positions count the residues as written; N and C are the ends. Square brackets hold non-standard residues; d marks the D form. Peptide text beside a SMILES is read from it. I, II: the chains in the order shown. βAla = NCCC(=O)O

How the values were obtained:
[1] = tested on: E. coli ATCC 25922 biofilm; type: cell-based, Escherichia coli; conditions: ATCC 25922, 20 h
Experimental: (§1) Biofilm formation was performed by adapting the procedure described in [39] using the Calgary Biofilm Device (Innovotech, Innovotech Inc. Edmonton, Canada). Briefly, 96-well plates containing the bacterial inoculum were sealed with lids bearing 96 pegs on which the biofilm could build up. The plates were placed in an orbital incubator at 35°C (for P. aeruginosa and E. coli) or 37°C (for S. aureus) for 20 h under agitation at 125 rpm. Once biofilms formed, the lids were removed from the plates and the pegs were rinsed twice with phosphate buffered saline (PBS) to remove planktonic cells. The peg-lid was then transferred to a 96-well challenge microtiter plate, each well containing 200 µl of a twofold serial dilution of each peptide in LB medium. The challenge plate was incubated at 37°C for 2 hours. Peptide activity on pre-formed biofilm was evaluated by two independent methods: (i) visual observation of bacterial growth and (ii) counting of living bacterial cells after peptide treatment. In the first case, the peg-lid was removed from the challenge plate, rinsed with PBS and used to cover a 96-well recovery microtiter plate, each well containing 200 µl LB medium. The recovery plate was sealed, incubated at 37°C for 4 hours and then observed for any visible growth of bacteria detached from the peptide-treated biofilm. […]

[2] = tested on: P. aeruginosa ATCC 27853 biofilm; type: cell-based, Pseudomonas aeruginosa; conditions: ATCC 27853, 20 h
Experimental: as §1

[3] = tested on: S. aureus ATCC 25923 biofilm; type: cell-based, Staphylococcus aureus; conditions: for Minimum biofilm eradication concentration (MBEC): ATCC 25923, 20 h
Experimental: Biofilm formation was performed by adapting the procedure described in [39] using the Calgary Biofilm Device (Innovotech, Innovotech Inc. Edmonton, Canada). Briefly, 96-well plates containing the bacterial inoculum were sealed with lids bearing 96 pegs on which the biofilm could build up. The plates were placed in an orbital incubator at 35°C (for P. aeruginosa and E. coli) or 37°C (for S. aureus) for 20 h under agitation at 125 rpm. Once biofilms formed, the lids were removed from the plates and the pegs were rinsed twice with phosphate buffered saline (PBS) to remove planktonic cells. The peg-lid was then transferred to a 96-well challenge microtiter plate, each well containing 200 µl of a twofold serial dilution of each peptide in LB medium. The challenge plate was incubated at 37°C for 2 hours. Peptide activity on pre-formed biofilm was evaluated by two independent methods: (i) visual observation of bacterial growth and (ii) counting of living bacterial cells after peptide treatment. In the first case, the peg-lid was removed from the challenge plate, rinsed with PBS and used to cover a 96-well recovery microtiter plate, each well containing 200 µl LB medium. The recovery plate was sealed, incubated at 37°C for 4 hours and then observed for any visible growth of bacteria detached from the peptide-treated biofilm. Growth of bacteria in a particular well indicated regrowth of planktonic cells from surviving biofilm. Minimum biofilm eradication concentration (MBEC) was defined as the minimum peptide concentration preventing regrowth of bacteria from the treated biofilm within 4 hours.

[4] = tested on: E. coli ATCC 25922 biofilm; type: cell-based, Escherichia coli; conditions: ATCC 25922, 2 h
Experimental: Biofilm formation was performed by adapting the procedure described in [39] using the Calgary Biofilm Device (Innovotech, Innovotech Inc. Edmonton, Canada). Briefly, 96-well plates containing the bacterial inoculum were sealed with lids bearing 96 pegs on which the biofilm could build up. The plates were placed in an orbital incubator at 35°C (for P. aeruginosa and E. coli) or 37°C (for S. aureus) for 20 h under agitation at 125 rpm. Once biofilms formed, the lids were removed from the plates and the pegs were rinsed twice with phosphate buffered saline (PBS) to remove planktonic cells. The peg-lid was then transferred to a 96-well challenge microtiter plate, each well containing 200 µl of a twofold serial dilution of each peptide in LB medium. The challenge plate was incubated at 37°C for 2 hours. Peptide activity on pre-formed biofilm was evaluated by two independent methods: (i) visual observation of bacterial growth and (ii) counting of living bacterial cells after peptide treatment. In the first case, the peg-lid was removed from the challenge plate, rinsed with PBS and used to cover a 96-well recovery microtiter plate, each well containing 200 µl LB medium. […] Colony forming units (CFU) were expressed as percentage with respect to control (peptide-untreated biofilms). […]

Enterobacteriaceae = assay: MIC comparison M33-D vs M33-L, Enterobacteriaceae; type: cell-based
Experimental: MICs were determined using a standard microdilution assay as recommended by the Clinical and Laboratory Standards Institute. Assays were performed in triplicate using cation-supplemented Mueller-Hinton (MH) broth (Becton Dickinson, Franklin Lakes, NJ, USA) and a bacterial inoculum of 5x10^4 CFU/well, in a final volume of 100 µl. The tested concentrations ranged from 0.1 µM to 24 µM for both peptides. Results were recorded after 18–20 h of incubation at 37°C.

With `CC[C@@H](C)[C@@H](NC(=O)[C@@H](CCCCN)NC(=O)[C@H](N)CCCCN)C(=O)N[C@H](CCCNC(=N)N)C(=O)N[C@@H](C(=O)N[C@H](CCCNC(=N)N)C(=O)N[C@H](CC(C)C)C(=O)N[C@H](CO)C(=O)N[C@H](C)C(=O)NCCCC[C@H](NC(=O)[C@@H](C)NC(=O)[C@@H](CO)NC(=O)[C@@H](CC(C)C)NC(=O)[C@@H](CCCNC(=N)N)NC(=O)[C@H](NC(=O)[C@@H](CCCNC(=N)N)NC(=O)[C@H](NC(=O)[C@@H](CCCCN)NC(=O)[C@H](N)CCCCN)[C@H](C)CC)C(C)C)C(=O)NCCCC[C@H](NC(=O)[C@H](CCCCNC(=O)[C@@H](C)NC(=O)[C@@H](CO)NC(=O)[C@@H](CC(C)C)NC(=O)[C@@H](CCCNC(=N)N)NC(=O)[C@H](NC(=O)[C@@H](CCCNC(=N)N)NC(=O)[C@H](NC(=O)[C@@H](CCCCN)NC(=O)[C@H](N)CCCCN)[C@H](C)CC)C(C)C)NC(=O)[C@@H](C)NC(=O)[C@@H](CO)NC(=O)[C@@H](CC(C)C)NC(=O)[C@@H](CCCNC(=N)N)NC(=O)[C@H](NC(=O)[C@@H](CCCNC(=N)N)NC(=O)[C@H](NC(=O)[C@@H](CCCCN)NC(=O)[C@H](N)CCCCN)[C@H](C)CC)C(C)C)C(=O)NCCC(=O)O)C(C)C` [M33-D] (I: H-[dK][dK][dI][dR][dV][dR][dL][dS][dA]KK[βAla]-OH / II: H-[dK][dK][dI][dR][dV][dR][dL][dS][dA]K / III: H-[dK][dK][dI][dR][dV][dR][dL][dS][dA] / IV: H-[dK][dK][dI][dR][dV][dR][dL][dS][dA]; amide I:10-IV:C, I:11-II:C, II:10-III:C; N-terminus assumed) the “Minimum biofilm eradication concentration (MBEC)” value [1] was 3 µM, the “Minimum biofilm eradication concentration (MBEC)” value [2] was 3 µM and the “Minimum biofilm eradication concentration (MBEC)” value [3] was 1.5 µM. For the same compound, the “Minimum bactericidal concentration on biofilm (MBCb)” value [4] was 6 µM (≈ 28.1 µg/mL) and the “fold lower activity (MIC) than M33-L” value (Enterobacteriaceae) was 2–4 fold.

For `CC[C@H](C)[C@H](NC(=O)[C@H](CCCCN)NC(=O)[C@@H](N)CCCCN)C(=O)N[C@@H](CCCNC(=N)N)C(=O)N[C@H](C(=O)N[C@@H](CCCNC(=N)N)C(=O)N[C@@H](CC(C)C)C(=O)N[C@@H](CO)C(=O)N[C@@H](C)C(=O)NCCCC[C@H](NC(=O)[C@H](C)NC(=O)[C@H](CO)NC(=O)[C@H](CC(C)C)NC(=O)[C@H](CCCNC(=N)N)NC(=O)[C@@H](NC(=O)[C@H](CCCNC(=N)N)NC(=O)[C@@H](NC(=O)[C@H](CCCCN)NC(=O)[C@@H](N)CCCCN)[C@@H](C)CC)C(C)C)C(=O)NCCCC[C@H](NC(=O)[C@H](CCCCNC(=O)[C@H](C)NC(=O)[C@H](CO)NC(=O)[C@H](CC(C)C)NC(=O)[C@H](CCCNC(=N)N)NC(=O)[C@@H](NC(=O)[C@H](CCCNC(=N)N)NC(=O)[C@@H](NC(=O)[C@H](CCCCN)NC(=O)[C@@H](N)CCCCN)[C@@H](C)CC)C(C)C)NC(=O)[C@H](C)NC(=O)[C@H](CO)NC(=O)[C@H](CC(C)C)NC(=O)[C@H](CCCNC(=N)N)NC(=O)[C@@H](NC(=O)[C@H](CCCNC(=N)N)NC(=O)[C@@H](NC(=O)[C@H](CCCCN)NC(=O)[C@@H](N)CCCCN)[C@@H](C)CC)C(C)C)C(=O)NCCC(=O)O)C(C)C` [M33-L] (I: H-KKIRVRLSAKK[βAla]-OH / II: H-KKIRVRLSAK / III: H-KKIRVRLSA / IV: H-KKIRVRLSA; amide I:10-IV:C, I:11-II:C, II:10-III:C; N-terminus assumed), the “Minimum biofilm eradication concentration (MBEC)” value [1] was 3 µM, the “Minimum biofilm eradication concentration (MBEC)” value [2] was 1.5 µM and the “Minimum biofilm eradication concentration (MBEC)” value [3] was 12 µM. For the same compound, the “activity in biofilm eradication experiments with respect to M33-D” value ([3]; S. aureus biofilm eradication, relative to M33-D) was 12% and the “Minimum bactericidal concentration on biofilm (MBCb)” value [4] was 6 µM (≈ 28.1 µg/mL).
